ChEMBL document CHEMBL1151403, “Antimicrobial agents from higher plants. Dragon's blood resin” (1982)
Calls of active or inactive are those of the source. The rule behind the calls is not given here.

Legend:
[1] = tested on: Salmonella enterica subsp. enterica serovar Gallinarum; test: Antimicrobial activity against Salmonella gallinarum ATCC 9184 at 100 mcg/mL by agar dilution-streak method; assay type: functional, organism-based
Escherichia coli = test: Antimicrobial activity against Escherichia coli ATCC 9637 at 100 mcg/mL by agar dilution-streak method; assay type: functional, organism-based
Klebsiella pneumoniae [2] = test: Antimicrobial activity against Klebsiella pneumoniae ATCC 10031 at 100 mcg/mL by agar dilution-streak method; assay type: functional, organism-based
Candida albicans [3] = test: Antimicrobial activity against Candida albicans ATCC 10231 at 100 mcg/mL by agar dilution-streak method; assay type: functional, organism-based
[4] = tested on: Mycolicibacterium smegmatis; test: Antimicrobial activity against Mycobacterium smegmatis ATCC 607 at 100 mcg/mL by agar dilution-streak method; assay type: functional, organism-based
Staphylococcus aureus [5] = test: Antimicrobial activity against Staphylococcus aureus ATCC 13709 at 100 mcg/mL by agar dilution-streak method; assay type: functional, organism-based
Candida albicans [6] = test: Antimicrobial activity against Candida albicans ATCC 10231 by agar dilution-streak method; assay type: functional
Staphylococcus aureus [7] = test: Antimicrobial activity against Staphylococcus aureus ATCC 13709 by agar dilution-streak method; assay type: functional
[8] = tested on: Mycolicibacterium smegmatis; test: Antimicrobial activity against Mycobacterium smegmatis ATCC 607 by agar dilution-streak method; assay type: functional
Klebsiella pneumoniae [9] = test: Antimicrobial activity against Klebsiella pneumoniae ATCC 10031 by agar dilution-streak method; assay type: functional

COc1cc(=O)cc2oc(-c3ccccc3)ccc1-2
Activity [1]: inactive
Activity (Escherichia coli): inactive
Activity (Klebsiella pneumoniae [2]): inactive
Activity (Candida albicans [3]): inactive
Activity [4]: inactive
Activity (Staphylococcus aureus [5]): inactive

COc1cc2oc3c(C)c(=O)cc4oc(-c5ccccc5)cc(c2c2c1CC[C@@H](c1ccccc1)O2)c43 [DRACORUBIN]
Activity [1]: inactive
Activity (Candida albicans [6]): 12.5 µg/mL
Activity (Staphylococcus aureus [7]): 50 µg/mL
Activity (Escherichia coli): inactive
Activity (Klebsiella pneumoniae [2]): inactive
Activity [8]: 25 µg/mL

COc1c2ccc(-c3ccccc3)oc-2cc(=O)c1C [DRACORHODIN]
Activity [1]: inactive
Activity (Candida albicans [6]): 25 µg/mL
Activity (Staphylococcus aureus [7]): 50 µg/mL
Activity (Escherichia coli): inactive
Activity (Klebsiella pneumoniae [9]): 100 µg/mL
Activity [8]: 25 µg/mL

COc1cc(O)cc2c1CC[C@H](c1ccccc1)O2
Activity [1]: inactive
Activity (Escherichia coli): inactive
Activity (Klebsiella pneumoniae [2]): inactive
Activity (Candida albicans [3]): inactive
Activity [4]: inactive
Activity (Staphylococcus aureus [5]): inactive

COc1cc2oc3cc(=O)cc4oc(-c5ccccc5)cc(c2c2c1CC[C@@H](c1ccccc1)O2)c43
Activity [1]: inactive
Activity (Escherichia coli): inactive
Activity (Klebsiella pneumoniae [2]): inactive
Activity (Candida albicans [3]): inactive
Activity [4]: inactive
Activity (Staphylococcus aureus [5]): inactive
